Data reported in PMC9501832 (Pharmaceutics, 2022).
Like-named read-outs stand apart in the source and are kept apart here.

What was measured:
[1] = biological target: phosphodiesterase enzyme type 5 (PDE5) (Homo sapiens, UniProt O76074); assay: In vitro enzyme assay (Transcreener fluorescence polarization); type: biochemical; settings: 10-dose, 3-fold serial dilution starting at 50 uM
Method: Tested compounds (series B, D, E and G) were tested against phosphodiesterase enzyme type 5 (PDE5) in order to investigate their inhibitory activities. The in vitro enzyme assay was conducted using Transcreener Fluorescence polarization assay to detect the reaction product GMP. The compounds were suspended in DMSO to make 10 mM stock solutions. The procedure was conducted using the following buffer system; 10 mM Tris, pH 7.5, 5 mM MgCl2, 0.01% Brij 35, 1 mM DTT and 1% DMSO. […] The tested samples were added into the enzyme by Acoustic Technology. The substrate was added and incubated for 1 h. Fluorescence polarization (FP) was measured after 90 min incubation at rt and mP was calculated. Data were analyzed based on the GMP standard curve.

PDE5 = settings: training set, supplement reference list, read-out: PDE5 IC50 Experimental, cited from earlier work

Molecule | melting point | IC50 [1] | other results
O=C(Cc1nc2ncccc2[nH]c1=O)NNC(=O)Nc1ccccc1 [Compound 5a] | 218 to 220 °C |  | 
O=C(Cc1nc2ncccc2[nH]c1=O)NNC(=O)Nc1ccc(Cl)cc1 [Compound 5b] | 230 to 232 °C |  | 
O=C(Cc1nc2ncccc2[nH]c1=O)NNC(=S)Nc1ccccc1 [Compound 5c] | 234 to 236 °C |  | 
O=C(Cc1nc2ncccc2[nH]c1=O)N/N=C/c1ccccc1 [Compound 6a] | 228 to 230 °C | 59.1 nM | 
O=C(Cc1nc2ncccc2[nH]c1=O)N/N=C/c1ccc([N+](=O)[O-])cc1 [Compound 6b] |  | 67.9 nM | 
COc1ccc(/C=N/NC(=O)Cc2nc3ncccc3[nH]c2=O)cc1 [Compound 6c] | 222 to 224 °C | 47 nM | 
O=C(Cc1nc2ncccc2[nH]c1=O)NN1C(=O)CCC1=O [Compound 7a] | 210 to 212 °C |  | 
O=C(Cc1nc2ncccc2[nH]c1=O)NN1C(=O)C=CC1=O [Compound 7b] | 213 to 215 °C |  | 
O=C(Cc1nc2ncccc2[nH]c1=O)NN1C(=O)c2ccccc2C1=O [Compound 7c] | 211 to 213 °C |  | 
CCN(CC)Cc1nc2ncccc2[nH]c1=O [Compound 8a] | 262 to 263 °C | 93.8 nM | 
O=c1[nH]c2cccnc2nc1CN1CCCCC1 [Compound 8b] | 277 to 279 °C | 44.6 nM | 
O=c1[nH]c2cccnc2nc1CN1CCOCC1 [Compound 8c] | 234 to 235 °C | 89 nM | 
O=c1[nH]c2cccnc2nc1CNc1ccccc1 [Compound 8d] | 248 to 250 °C | 101 nM | 
Cc1cccc(NCc2nc3ncccc3[nH]c2=O)c1 [Compound 8f] | 258 to 260 °C | 21 nM | 
Cc1ccc(NCc2nc3ncccc3[nH]c2=O)cc1 [Compound 8g] | 284 to 286 °C |  | 
O=c1[nH]c2cccnc2nc1CNc1ccc(Cl)cc1 [Compound 8h] | > 300 °C |  | 
O=c1[nH]c2cccnc2nc1CNc1ccc(Br)cc1 [Compound 8i] | > 300 °C | 137 nM | 
O=c1[nH]c2cccnc2nc1CN(c1ccccc1)c1ccccc1 [Compound 8j] | 292 to 293 °C |  | 

Molecule | melting point | IC50 [1] | other results
CCCc1nn(C)c2c(=O)[nH]c(-c3cc(S(=O)(=O)N4CCN(C)CC4)ccc3OCC)nc12 [t1, Sildenafil] |  |  | IC50 (PDE5; ref [1]): 2.2 nM
CN1CC(=O)N2[C@H](c3ccc4c(c3)OCO4)c3[nH]c4ccccc4c3C[C@@H]2C1=O [t3, Tadalafil] |  |  | IC50 (PDE5; ref [1]): 1.2 nM
COc1ccc(CNC(=O)c2cc([N+](=O)[O-])ccc2NC(C)CO)cc1OC (centres unmarked) [t5, Benzamidenafil] |  |  | IC50 (PDE5; ref [3]): 1.1 nM
COc1ccc(CN=c2[nH]c(N3CCC[C@H]3CO)ncc2C(=O)NCc2ncccn2)cc1Cl [t6, Avanafil] |  |  | IC50 (PDE5; ref [5]): 5.2 nM
CCCc1nn(C)c2c(=O)[nH]c(-c3cc(S(=O)(=O)N4CCN(CC)CC4)ccc3OCC)nc12 [t7, Homosildenafil] |  |  | IC50 (PDE5; ref [5]): 3.8 nM
CCCc1nn(C)c2c(=O)[nH]c(-c3cc(S(=O)(=O)N4CCN(CCO)CC4)ccc3OCC)nc12 [t8, Hydroxyhomosildenafil] |  |  | IC50 (PDE5; ref [5]): 3.4 nM
CCCc1nn(C)c2c(=O)[nH]c(-c3cc(C(=O)CN4CCN(CC)CC4)ccc3OCC)nc12 [t9, Acetildenafil] |  |  | IC50 (PDE5; ref [5]): 7.6 nM
CCCc1nn(C)c2c(=O)[nH]c(-c3cc(C(=O)CN4CCN(CCO)CC4)ccc3OCC)nc12 [t10, Hydroxyacetildenafil] |  |  | IC50 (PDE5; ref [5]): 58.4 nM
CCCc1nn(C)c2c(=S)nc(-c3cc(S(=O)(=O)N4CCN(C)CC4)ccc3OCC)[nH]c12 [t11, Thiosildenafil] |  |  | IC50 (PDE5; ref [5]): 0.6 nM
CCCOc1ccc(S(=O)(=O)NCCC2CCCN2C)cc1-c1nc2c(CCC)nn(C)c2c(=O)[nH]1 (centres unmarked) [t13, Udenafil] |  |  | IC50 (PDE5; ref [6]): 8.3 nM
CCCc1nn(C)c2c(=S)nc(-c3cc(S(=O)(=O)N4C[C@@H](C)N[C@@H](C)C4)ccc3OCC)[nH]c12 [t15, Thioaildenafil] |  |  | IC50 (PDE5; ref [3]): 0.6 nM
CCCc1nn(C)c2c(=O)[nH]c(-c3cc([N+](=O)[O-])ccc3OCC)nc12 [t16, Nitrodenafil] |  |  | IC50 (PDE5; ref [3]): 67.4 nM
CCCc1nn(C)c2c(=O)[nH]c(-c3cc(C(=O)CN4C[C@@H](C)N[C@@H](C)C4)ccc3OCC)nc12 [t17, Dimethylacetildenafil] |  |  | IC50 (PDE5; ref [3]): 51.2 nM
NN1CC(=O)N2[C@H](c3ccc4c(c3)OCO4)c3[nH]c4ccccc4c3C[C@@H]2C1=O [t116, Aminotadalafil] |  |  | IC50 (PDE5; ref [5]): 4.2 nM
Carbodenafil [t12] |  |  | IC50 (PDE5; ref [6]): 5.2 nM

Now from value to molecule, other results behind:

melting point | IC50 [1] | Molecule | other results
234 to 236 °C | 32.2 nM | O=c1[nH]c2cccnc2nc1CN/N=C/c1ccccc1 [Compound 9a] | 
237 to 239 °C | 30.4 nM | O=c1[nH]c2cccnc2nc1CN/N=C/c1ccc(Cl)cc1 [Compound 9b] | 
238 to 240 °C | 41.4 nM | O=c1[nH]c2cccnc2nc1CN/N=C/c1ccc([N+](=O)[O-])cc1 [Compound 9c] | 
256 to 258 °C | 32.3 nM | COc1ccc(/C=N/NCc2nc3ncccc3[nH]c2=O)cc1 [Compound 9d] | 
230 to 233 °C | 29.4 nM | C/C(=N\NCc1nc2ncccc2[nH]c1=O)c1ccccc1 [Compound 9e] | 
220 to 222 °C |  | O=c1[nH]c2cccnc2nc1Cc1n[nH]c(=O)n1-c1ccccc1 [Compound 10a] | 
219 to 222 °C |  | O=c1[nH]c2cccnc2nc1Cc1n[nH]c(=S)n1-c1ccccc1 [Compound 10c] | 
234 to 236 °C | 26.3 nM | CC(=O)N1N=C(Cc2nc3ncccc3[nH]c2=O)OC1c1ccccc1 (centres unmarked) [Compound 11a] | 
240 to 242 °C | 18.1 nM | CC(=O)N1N=C(Cc2nc3ncccc3[nH]c2=O)OC1c1ccc([N+](=O)[O-])cc1 (centres unmarked) [Compound 11b] | 
235 to 237 °C | 31 nM | COc1ccc(C2OC(Cc3nc4ncccc4[nH]c3=O)=NN2C(C)=O)cc1 (centres unmarked) [Compound 11c] | 
219 to 221 °C |  | O=C1Nc2cccnc2N2C1=CNN=C2c1ccccc1 [Compound 12a] | 
222 to 225 °C |  | O=C1Nc2cccnc2N2C1=CNN=C2c1ccc(Cl)cc1 [Compound 12b] | 
222 to 224 °C |  | O=C1Nc2cccnc2N2C1=CNN=C2c1ccc([N+](=O)[O-])cc1 [Compound 12c] | 
229 to 231 °C |  | COc1ccc(C2=NNC=C3C(=O)Nc4cccnc4N32)cc1 [Compound 12d] | 
